How the values were obtained:
Assay in all cases: relative viability (nuclei count vs DMSO), 5 days (fraction); higher = more cells survive
[1] = compound: Cn1cc(-c2cnn3c(N)c(Br)c([C@@H]4CCCNC4)nc23)cn1 + CC(=O)c1c(C)c2cnc(Nc3ccc(N4CCNCC4)cn3)nc2n(C2CCCC2)c1=O [Palbociclib] (partner 0.5 µM)
How it was run: (§1)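 Relative viability was taken as the ratio of nuclei in treated wells to nuclei in vehicle wells. Lung cancer cell lines in 1536-well plates received compounds by pin tool one day after seeding, either one drug alone or a fixed anchor-drug dose plus five library-drug doses (not always all listed) in √10 steps. Nuclei were counted on 4× images after 5 days of treatment, and values are medians of duplicate plates.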

[2] = compound: Cn1cc(-c2cnn3c(N)c(Br)c([C@@H]4CCCNC4)nc23)cn1 + Cc1nc(Nc2ncc(C(=O)Nc3c(C)cccc3Cl)s2)cc(N2CCN(CCO)CC2)n1 [Dasatinib] (partner 0.075 µM)
How it was run: as §1

[3] = compound: Cn1cc(-c2cnn3c(N)c(Br)c([C@@H]4CCCNC4)nc23)cn1 + CCNC(=O)c1noc(-c2cc(C(C)C)c(O)cc2O)c1-c1ccc(CN2CCOCC2)cc1 [Luminespib] (partner 0.01 µM)
How it was run: as §1

[4] = compound: Cn1cc(-c2cnn3c(N)c(Br)c([C@@H]4CCCNC4)nc23)cn1 + CC(C)C[C@H](NC(=O)[C@H](Cc1ccccc1)NC(=O)c1cnccn1)B(O)O [Bortezomib] (partner 0.002 µM)
How it was run: as §1

| Cell Line | relative viability ([1]; first compound 0.05 µM) | relative viability ([1]; first compound 0.1581 µM) | relative viability ([1]; first compound 0.5 µM) | relative viability ([1]; first compound 1.581 µM) | relative viability ([1]; first compound 5 µM) | relative viability ([2]; first compound 0.05 µM) | relative viability ([2]; first compound 0.1581 µM) | relative viability ([2]; first compound 0.5 µM) | relative viability ([2]; first compound 1.581 µM) | relative viability ([2]; first compound 5 µM) | relative viability ([3]; first compound 0.05 µM) | relative viability ([3]; first compound 0.1581 µM) | relative viability ([3]; first compound 0.5 µM) | relative viability ([3]; first compound 1.581 µM) | relative viability ([3]; first compound 5 µM) | relative viability ([4]; first compound 0.05 µM) | relative viability ([4]; first compound 0.1581 µM) | relative viability ([4]; first compound 0.5 µM) | relative viability ([4]; first compound 1.581 µM) | relative viability ([4]; first compound 5 µM) |
| --- | --- | --- | --- | --- | --- | --- | --- | --- | --- | --- | --- | --- | --- | --- | --- | --- | --- | --- | --- | --- |
| COR-L 105 | 0.411 | 0.367 | 0.385 | 0.41 | 0.386 | 0.318 | 0.336 | 0.341 | 0.29 | 0.309 | 0.712 | 0.754 | 0.696 | 0.581 | 0.484 | 0.757 | 0.721 | 0.768 | 0.613 | 0.611 |
| LK-2 | 0.703 | 0.658 | 0.678 | 0.542 | 0.431 | 0.228 | 0.296 | 0.26 |  | 0.228 | 0.213 | 0.206 | 0.182 |  | 0.169 |  |  |  |  |  |
| NCI-H727 | 0.646 | 0.686 | 0.589 | 0.581 | 0.642 | 0.29 | 0.292 | 0.333 | 0.403 | 0.287 | 0.345 | 0.412 | 0.315 | 0.354 | 0.343 | 0.818 | 0.887 | 0.901 | 0.623 | 0.412 |
| RERF-LC-KJ | 0.983 | 1.04 | 1.03 | 0.863 | 0.712 | 0.936 | 0.806 | 0.813 | 0.572 | 0.618 | 1.34 | 1.28 | 0.693 | 0.863 | 0.873 | 1.12 | 1.17 | 1.02 | 0.96 | 0.953 |
| NCI-H2023 | 0.341 | 0.335 | 0.191 | 0.18 | 0.128 | 0.616 | 0.513 | 0.427 | 0.225 | 0.156 | 0.873 | 0.305 | 0.234 | 0.167 | 0.123 | 1.04 | 0.923 | 0.733 | 0.235 | 0.147 |
| NCI-H322M | 0.424 | 0.458 | 0.452 | 0.463 | 0.393 | 0.268 | 0.279 | 0.268 | 0.231 | 0.245 | 0.71 | 0.33 | 0.426 | 0.376 | 0.279 | 1.2 | 1.32 | 1.22 | 1.21 | 1.26 |
| NCI-H1666 | 0.674 | 0.654 | 0.649 | 0.615 | 0.618 | 0.818 | 0.734 | 0.642 | 0.756 | 0.785 | 0.971 | 1.02 | 0.906 | 0.958 | 0.917 | 1.09 | 0.804 | 0.786 | 0.802 | 0.721 |
| NCI-H1648 | 0.208 | 0.281 | 0.254 | 0.305 | 0.259 |  |  |  |  |  |  |  |  |  |  |  |  |  |  |  |
| NCI-H2087 | 0.222 | 0.292 | 0.235 | 0.241 | 0.177 | 0.856 | 0.936 | 1.09 | 0.835 | 0.809 | 0.143 | 0.168 | 0.192 | 0.151 | 0.175 | 0.893 | 0.876 | 0.872 | 0.622 | 0.911 |
| LU99A | 0.421 | 0.458 | 0.386 | 0.392 | 0.339 | 0.397 | 0.51 | 0.485 | 0.405 | 0.244 | 0.31 | 0.202 | 0.248 | 0.162 | 0.223 | 1.16 | 1.25 | 1.05 | 1.14 | 0.679 |
| HCC-366 | 0.399 | 0.463 | 0.359 | 0.267 | 0.3 | 0.644 | 0.562 | 0.628 | 0.467 | 0.22 |  |  |  |  |  | 1.03 | 1.2 | 1.06 | 0.734 | 0.334 |
| EKVX | 0.368 | 0.376 | 0.383 | 0.413 | 0.355 | 0.376 | 0.549 | 0.54 | 0.496 | 0.578 | 0.939 | 0.958 | 0.797 | 0.845 | 0.667 | 1.06 | 1.16 | 0.987 | 0.836 | 1.07 |
| NCI-H522 | 1.1 | 0.918 | 0.757 | 1.07 | 0.95 | 0.785 | 0.849 | 0.551 | 0.828 | 0.831 | 1.23 | 1.26 | 1.17 | 1 | 0.87 |  |  |  |  |  |
| NCI-H1755 | 0.467 | 0.494 | 0.459 | 0.449 | 0.425 | 0.4 | 0.42 | 0.42 | 0.407 | 0.253 | 0.465 | 0.534 | 0.394 | 0.562 | 0.194 | 1.04 | 1.03 | 0.952 | 0.879 | 0.711 |
| NCI-H647 | 0.378 | 0.47 | 0.423 | 0.228 | 0.107 | 0.212 | 0.326 | 0.143 | 0.12 | 0.123 | 0.232 | 0.262 | 0.127 | 0.106 | 0.104 | 1.15 | 1.05 | 0.648 | 0.696 | 0.38 |
| LC-2-ad | 0.499 | 0.515 | 0.441 | 0.435 | 0.483 | 0.486 | 0.544 | 0.504 | 0.327 | 0.458 | 1.01 | 1.11 | 1.26 | 1.03 | 1.08 | 1.03 | 1.15 | 0.938 | 1.06 | 0.935 |
| NCI-H1793 | 0.349 | 0.281 | 0.32 | 0.301 | 0.31 | 0.449 | 0.416 | 0.306 | 0.385 | 0.184 | 0.211 | 0.815 | 0.233 | 0.172 | 0.152 |  |  |  |  |  |
| HCC-827 | 0.48 | 0.437 | 0.491 | 0.471 | 0.451 | 0.32 | 0.392 | 0.276 | 0.295 | 0.193 | 0.551 | 0.843 | 0.485 | 0.674 | 0.332 | 0.919 | 1.03 | 1.18 | 1.1 | 1.01 |

From the supplement of paper PMC10307832
